Experiment [1] has as its target memapsin 2 (Homo sapiens, UniProt P56817). Put plainly: Inhibition of memapsin 2 catalytic activity (Ki). It is filed as biochemical. Particulars: memapsin 2, pH 4, 37° C.; read-out: M2K. A digest of the protocol: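 Run at 37 °C and pH 4: compound and enzyme pre-incubated 20 min before FS-2 fluorogenic substrate started hydrolysis,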
For experiment [2], the target named is cathepsin D (Homo sapiens, UniProt P07339). Put plainly: Inhibition of cathepsin D catalytic activity (Ki). Type of experiment: biochemical. Particulars: pH 4.0, 37° C., read-out: CDK.
For experiment [3], the target named is T1, memapsin 1 (Homo sapiens, UniProt Q9Y5Z0).
T1 sequence (Q9Y5Z0 63-518): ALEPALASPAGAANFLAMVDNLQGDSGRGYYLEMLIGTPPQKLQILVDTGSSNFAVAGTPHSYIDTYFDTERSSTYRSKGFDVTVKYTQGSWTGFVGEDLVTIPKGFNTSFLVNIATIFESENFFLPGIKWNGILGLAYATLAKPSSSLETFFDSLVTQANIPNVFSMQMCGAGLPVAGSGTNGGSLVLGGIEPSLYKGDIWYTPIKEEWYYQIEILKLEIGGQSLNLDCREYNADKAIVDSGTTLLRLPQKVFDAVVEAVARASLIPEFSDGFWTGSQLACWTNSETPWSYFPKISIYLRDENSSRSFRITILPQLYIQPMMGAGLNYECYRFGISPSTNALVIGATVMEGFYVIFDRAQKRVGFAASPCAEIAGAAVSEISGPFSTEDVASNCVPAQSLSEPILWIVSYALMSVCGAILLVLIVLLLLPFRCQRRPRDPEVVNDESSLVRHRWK
Put plainly: Inhibition of memapsin 1 catalytic activity (Ki). It is filed as biochemical. To be noted: memapsin 1, pH 4.0, 37° C.; read-out: M1K. How it is done:
A substrate peptide NH3-ELDLAVEFWHDR-CO2 (SEQ ID NO.:1) (used for inhibition assay of memapsin 2, memapsin 1, and cathepsin D) was dissolved at 2 mg/ml in DMSO and diluted 1:100 in 0.1 M sodium acetate, pH 4.0 just prior to assay. Inhibitor dissolved in DMSO was diluted into 0.1 M sodium acetate, pH 4.0 (1:100 dilution). A […] aliquot of the inhibitor solution in pH 4 buffer was combined with […] of 0.1 M sodium acetate containing 100-200 nM of memapsin 1, memapsin 2, or cathepsin D. Following a pre-incubation at 37° C., the proteolytic assay was initated by addition of […] of the substrate diluted into pH 4 buffer, and incubation continued at 37° C. Aliquots were removed at time intervals, and combined with an equal volume of MALDI-TOF matrix (α-hydroxycinnamic acid in acetone, 20 mg/ml) and immediately spotted in duplicate onto a stainless-steel MALDI sample plate. MALDI-TOF mass spectrometry was performed on a PE Biosystems Voyager DE instrument at the Molecular Biology Resource Center on campus. The instrument was operated at 25,000 accelerating volts in positive mode with a 150 ns delay. Ions with a mass-to-charge ratio (m/z) were detected in the range of 650-2000 atomic mass units. Data were analyzed by the Voyager Data Explorer module to obtain ion intensity data for mass species of substrates and corresponding products in a given mixture. Relative product formation was calculated as the ratio of signal intensity of the product to the sum of signal intensities of both product and the corresponding substrate. Relative product formed per unit time was obtained from non-linear regression analysis of the data representing the initial 15% formation of product using the model: 1−e^−kT, where k was the relative hydrolytic rate constant and T was time in seconds. Alternatively, relative hydrolytic rates were determined using a fluorogenic cleavage assay (Ermolieff, J. et al., Biochemistry, 39: 12450-12456 (2000)). Initial rates from either method were expressed relative to uninhibited controls and the inhibition constant Ki was determined by a non-linear fit to a tight-binding model of competitive inhibition (Bieth, J., Bayer-Symposium V: Proteinase Inhibitors, pp 463-469, Spinger-Varlag, Berlin (1994)). Results are shown in Table 1 above (M2K, CDK, and M1K columns represent, respectively, the K1 values obtained for memapsin 2, cathepsin D and memapsin 1).

Experiment [4] has as its system Aβ production in Chinese hamster ovary cells that over-express human APP695 with the London and Swedish mutations. Put plainly: Cellular Aβ IC50 determination (Aβ40 sandwich ELISA). Particulars: Cricetulus griseus, CHO, 24 h, read-out: Cell, Aβ40, CHO cells over-expressing human APP695 (London and Swedish mutations), 24 h. (In general: ELISA stands for enzyme-linked immunosorbent assay.)

cathepsin D, sequence (P07339 65-412, species assumed): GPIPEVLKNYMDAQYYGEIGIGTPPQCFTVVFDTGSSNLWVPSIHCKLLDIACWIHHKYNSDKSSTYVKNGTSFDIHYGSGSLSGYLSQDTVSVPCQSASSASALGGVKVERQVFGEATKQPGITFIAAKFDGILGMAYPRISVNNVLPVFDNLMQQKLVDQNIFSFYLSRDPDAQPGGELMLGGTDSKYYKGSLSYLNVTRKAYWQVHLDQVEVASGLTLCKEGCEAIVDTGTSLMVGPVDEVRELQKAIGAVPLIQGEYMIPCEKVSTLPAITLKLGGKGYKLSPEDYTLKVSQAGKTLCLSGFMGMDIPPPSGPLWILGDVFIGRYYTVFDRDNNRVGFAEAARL
memapsin 2, sequence (P56817 46-501): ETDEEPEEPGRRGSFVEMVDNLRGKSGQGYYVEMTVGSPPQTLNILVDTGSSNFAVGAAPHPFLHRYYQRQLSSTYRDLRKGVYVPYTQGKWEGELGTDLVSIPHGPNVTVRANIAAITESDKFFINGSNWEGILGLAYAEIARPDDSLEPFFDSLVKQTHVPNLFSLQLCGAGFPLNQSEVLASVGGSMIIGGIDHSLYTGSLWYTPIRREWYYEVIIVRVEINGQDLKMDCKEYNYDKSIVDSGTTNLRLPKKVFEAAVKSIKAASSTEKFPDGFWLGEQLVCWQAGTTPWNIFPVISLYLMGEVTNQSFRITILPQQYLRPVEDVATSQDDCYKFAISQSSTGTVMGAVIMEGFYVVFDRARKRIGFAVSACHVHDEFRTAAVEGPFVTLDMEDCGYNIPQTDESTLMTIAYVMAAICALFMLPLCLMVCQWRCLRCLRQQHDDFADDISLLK

Turning to `COc1cccc(CNCC(O)C(Cc2ccccc2)NC(=O)c2cc(C(=O)NC(C)c3nc(C)oc3C)cc(N(C)S(C)(=O)=O)c2)c1` (stereo not shown) [N1-(1-(2,5-dimethyloxazol-4-yl)ethyl)-N3-(3-hydroxy-4-(3-methoxybenzylamino)-1-phenylbutan-2-yl)-5-(N-methylmethylsulfonamido)isophthalamide], the Ki in experiment [1], in experiment [2] and in experiment [3] was > 501 nM each time. Moreover, the IC50 in experiment [4] is 1000 to 5000 nM.
As to `COc1cccc(CNCC(O)C(Cc2ccccc2)NC(=O)c2cc(C(=O)NC(C)c3cccc(OC)c3)cc(N(C)S(C)(=O)=O)c2)c1` (stereo not shown) [N1-(3-hydroxy-4-(3-methoxybenzylamino)-1-phenylbutan-2-yl)-N3-(1-(3-methoxyphenyl)ethyl)-5-(N-methylmethylsulfonamido)isophthalamide], the Ki in experiment [1] is < 300 nM; in experiment [3], > 501 nM. Besides, the IC50 in experiment [4] was < 1000 nM.
In the case of `COc1ccccc1CNCC(O)C(Cc1ccccc1)NC(=O)c1cc(C(=O)NC(C)c2ccccc2)cc(N(C)S(C)(=O)=O)c1` (stereo not shown) [N1-(3-hydroxy-4-(2-methoxybenzylamino)-1-phenylbutan-2-yl)-5-(N-methylmethylsulfonamido)-N3-(1-phenylethyl)isophthalamide], the Ki was < 300 nM in experiment [1], < 300 nM in experiment [2] and 301 to 500 nM in experiment [3]. In addition, the IC50 in experiment [4] is < 1000 nM.
Turning to `CC(NCC(O)C(Cc1ccccc1)NC(=O)c1cc(C(=O)NC(C)c2ccccc2)cc(N(C)S(C)(=O)=O)c1)c1ccccc1` (stereo not shown) [N1-(3-hydroxy-1-phenyl-4-(1-phenylethylamino)butan-2-yl)-5-(N-methylmethylsulfonamido)-N3-(1-phenylethyl)isophthalamide], the Ki was < 300 nM in experiment [1], < 300 nM in experiment [2] and 301 to 500 nM in experiment [3]. For the same molecule, in experiment [4], the IC50 is < 1000 nM.
As to `COc1cccc(CNCC(O)C(Cc2ccccc2)NC(=O)c2cc(C(=O)NC(C)c3ccccc3)cc(N(C)S(C)(=O)=O)c2)c1` (stereo not shown) [N1-(3-hydroxy-4-(3-methoxybenzylamino)-1-phenylbutan-2-yl)-5-(N-methylmethylsulfonamido)-N3-(1-phenylethyl)isophthalamide], the Ki in experiment [2] and in experiment [3] was < 300 nM throughout. Also, the IC50 in experiment [4] is < 1000 nM.
Regarding `COCc1cccc(CNCC(O)C(Cc2ccccc2)NC(=O)c2cc(C(=O)NC(C)c3ccccc3)cc(N(C)S(C)(=O)=O)c2)c1` (stereo not shown) [N1-(3-hydroxy-4-(3-(methoxymethyl)benzylamino)-1-phenylbutan-2-yl)-5-(N-methylmethylsulfonamido)-N3-(1-phenylethyl)isophthalamide], the Ki in experiment [3] is > 501 nM. Moreover, in experiment [4], the IC50 was > 5000 nM.
With `CC(NC(=O)c1cc(C(=O)NC(Cc2ccccc2)C(O)CNCc2cccc(COCc3ccccc3)c2)cc(N(C)S(C)(=O)=O)c1)c1ccccc1` (stereo not shown) [N1-(4-(3-(benzyloxymethyl)benzylamino)-3-hydroxy-1-phenylbutan-2-yl)-5-(N-methylmethylsulfonamido)-N3-(1-phenylethyl)isophthalamide], the Ki is 301 to 500 nM in experiment [1], > 501 nM in experiment [2] and < 300 nM in experiment [3].
`COc1cccc(CNCC(O)C(CC(C)C)NC(=O)c2cc(C(=O)NC(C)c3ccccc3)cc(N(C)S(C)(=O)=O)c2)c1` (stereo not shown) [N1-(2-hydroxy-1-(3-methoxybenzylamino)-5-methylhexan-3-yl)-5-(N-methylmethylsulfonamido)-N3-(1-phenylethyl)isophthalamide]: the Ki in experiment [1] and in experiment [3] was > 501 nM each time.
With `COc1cccc(CNCC(O)C(Cc2ccccc2)NC(=O)c2cccc(C(=O)N(Cc3nc(C)cs3)C3CC3)c2)c1` (stereo not shown) [N1-cyclopropyl-N3-(3-hydroxy-4-(3-methoxybenzylamino)-1-phenylbutan-2-yl)-N1-((4-methylthiazol-2-yl)methyl)isophthalamide], the Ki in experiment [1] was < 300 nM; in experiment [2] it was < 300 nM; in experiment [3], > 501 nM.
Regarding `Cc1nc(CNCC(O)C(Cc2ccccc2)NC(=O)c2cc(C(=O)NC(C)c3ccccc3)cc(N(C)S(C)(=O)=O)c2)c(C)o1` (stereo not shown) [N1-(4-((2,5-dimethyloxazol-4-yl)methylamino)-3-hydroxy-1-phenylbutan-2-yl)-5-(N-methylmethylsulfonamido)-N3-(1-phenylethyl)isophthalamide], the Ki in experiment [2] and in experiment [3] was > 501 nM throughout. Further, in experiment [4], the IC50 was in the range of 1000 to 5000 nM.
As to “4- or 6-fluoro-N3-(3-hydroxy-4-(3-methoxybenzylamino)-1-phenylbutan-2-yl)-N1-methyl-N1-((4-methylthiazol-2-yl)methyl)isophthalamide”, the Ki in experiment [1], in experiment [2] and in experiment [3] was < 300 nM each time.
With `Cc1csc(CN(C)CC(O)C(Cc2ccccc2)NC(=O)c2cc(C(=O)NC(C)c3ccccc3)cc(N(C)S(C)(=O)=O)c2)n1` (stereo not shown) [N1-(3-hydroxy-4-(methyl((4-methylthiazol-2-yl)methyl)amino)-1-phenylbutan-2-yl)-5-(N-methylmethylsulfonamido)-N3-(1-phenylethyl)isophthalamide], the Ki in experiment [1], in experiment [2] and in experiment [3] was > 501 nM in each case.
With `COc1cncc(CNCC(O)C(Cc2ccccc2)NC(=O)c2cc(C(=O)NC(C)c3ccccc3)cc(N(C)S(C)(=O)=O)c2)c1` (stereo not shown) [N1-(3-hydroxy-4-((5-methoxypyridin-3-yl)methylamino)-1-phenylbutan-2-yl)-5-(N-methylmethylsulfonamido)-N3-(1-phenylethyl)isophthalamide], the Ki in experiment [1] was < 300 nM; in experiment [2] it was < 300 nM; in experiment [3] it was 301 to 500 nM.
`COc1cccc(CNCC(O)C(Cc2ccccc2)NC(=O)c2cc(C(=O)N(C)Cc3nc(C)cs3)cc(N(C)S(C)(=O)=O)c2)c1` (stereo not shown) [N1-(3-hydroxy-4-(3-methoxybenzylamino)-1-phenylbutan-2-yl)-N3-methyl-5-(N-methylmethylsulfonamido)-N3-((4-methylthiazol-2-yl)methyl)isophthalamide]: the Ki in experiment [1] and in experiment [2] was < 300 nM throughout. The IC50 in experiment [4] is < 1000 nM.
For the molecule `CC(C)NC(=O)c1cccc(CNCC(O)C(Cc2ccccc2)NC(=O)c2cc(C(=O)NC(C)c3ccccc3)cc(N(C)S(C)(=O)=O)c2)c1` (stereo not shown) [N1-(3-hydroxy-4-(3-(isopropylcarbamoyl)benzylamino)-1-phenylbutan-2-yl)-5-(N-methylmethylsulfonamido)-N3-(1-phenylethyl)isophthalamide], the Ki in experiment [1] and in experiment [3] was > 501 nM in each case. Besides, the IC50 in experiment [4] was > 5000 nM.
As to `COc1cccc(CNCC(O)C(Cc2ccccc2)NC(=O)c2cccc(C(=O)N(C)Cc3nc(C)cs3)c2F)c1` (stereo not shown) [2-fluoro-N1-(3-hydroxy-4-(3-methoxybenzylamino)-1-phenylbutan-2-yl)-N3-methyl-N3-((4-methylthiazol-2-yl)methyl)isophthalamide], the Ki in experiment [1] was > 501 nM; in experiment [2], < 300 nM. Besides, in experiment [4], the IC50 fell in the range of 1000 to 5000 nM.
For `COc1cccc(CNCC(O)C(Cc2ccccc2)NC(=O)c2cc(C(=O)NC(C)C3CCCCC3)cc(N(C)S(C)(=O)=O)c2)c1` (stereo not shown) [N1-(1-cyclohexylethyl)-N3-(3-hydroxy-4-(3-methoxybenzylamino)-1-phenylbutan-2-yl)-5-(N-methylmethylsulfonamido)isophthalamide] the same measures were < 300 nM, < 300 nM and < 1000 nM.

Source of the values: patent publication US7504420B2, “Compounds which inhibit beta-secretase activity and methods of use” (CoMentis, Inc., priority 2005, dated 2009).
